Source: paper PMC9967645, “OAT3 Participates in Drug–Drug Interaction between Bentysrepinine and Entecavir through Interactions with M8—A Metabolite of Bentysrepinine—In Rats and Humans In Vitro” (Molecules, 2023)
Values joined by “and” are separate entries in the source; they are usually repeats but may differ in a detail not shown here. Identical values can stand only once. Like-named read-outs stand apart in the source and are kept apart here.

Key:
hOAT3 = molecular target: T1, hOAT3 (Homo sapiens, UniProt Q8TCC7); assay: In vitro uptake assay in hOAT3-HEK293 cells
T1 sequence (Q8TCC7 1-542): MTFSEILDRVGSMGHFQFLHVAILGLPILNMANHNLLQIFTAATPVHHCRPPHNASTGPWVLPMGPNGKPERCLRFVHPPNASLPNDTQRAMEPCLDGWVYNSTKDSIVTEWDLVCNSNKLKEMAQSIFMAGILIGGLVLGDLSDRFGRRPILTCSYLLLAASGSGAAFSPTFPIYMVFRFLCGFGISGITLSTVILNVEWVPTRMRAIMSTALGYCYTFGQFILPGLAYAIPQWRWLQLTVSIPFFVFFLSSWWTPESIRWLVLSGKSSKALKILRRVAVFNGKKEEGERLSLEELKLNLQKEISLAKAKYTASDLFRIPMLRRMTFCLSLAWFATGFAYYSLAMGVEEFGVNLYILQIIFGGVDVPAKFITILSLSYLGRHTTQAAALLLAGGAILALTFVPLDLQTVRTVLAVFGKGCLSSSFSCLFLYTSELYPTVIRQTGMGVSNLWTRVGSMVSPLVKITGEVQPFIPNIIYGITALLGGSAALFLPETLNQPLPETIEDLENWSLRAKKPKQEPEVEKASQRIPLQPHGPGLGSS
Method: The hOAT1-HEK293, hOAT3-HEK293 and mock cells were cultured in Dulbecco modified Eagle medium (DMEM) containing 10% fetal bovine serum (FBS) and 1% penicillin/streptomycin in an atmosphere of 5% CO2 air at 37 °C. The HEK293 cells were plated on 24-well plates at a density of 5 × 10^5 cells/well. […] Uptake assay was initiated by adding 1 mL of the transporter buffer containing Y101, M8, ETV or probe substrate. Following incubation with gentle shaking, the uptake was terminated at designated time by removing the transporter buffer and washing cells three times with 1 mL of ice-cold HBSS. Next, substrates of Y101, M8, ETV, PAH and ES in cell monolayer were released by lysing the cells with 0.3 mL of 0.1% Triton X-100 for 2 h and determined by liquid chromatography–tandem mass spectrometry (LC–MS/MS). In the time-course uptake assay, Y101 (2.0 µM) and M8 (10 µM) in the presence or absence of PRO (100 µM) were measured in hOAT1-HEK293, hOAT3-HEK293 and mock cells. The concentration-dependent uptake of M8 was determined in hOAT3-HEK293 cells, and incubation time (5 min) was optimized. The uptake of M8 (10 µM) with or without ETV was examined in hOAT3-HEK293 cells. The uptake of ETV (10 µM) with or without Y101 or M8 was also measured in hOAT1-HEK293 and hOAT3-HEK293 cells, respectively. Furthermore, PAH and ES at concentrations of 10 µM were used as positive control in hOAT1-HEK293 and hOAT3-HEK293 cells, respectively. Protein concentrations were measured by the bicinchoninic acid procedure (Solarbio, Beijing, China) using bovine serum albumin as the standard.
(§1) Biological samples were prepared as previously described. Aliquots (50 µL) of urine, plasma, kidney homogenates, or cell lysates were individually mixed with 150 µL methanol and 50 µL working solution of internal standard (acetaminophen or bestatin), followed by vortexing for 1 min and centrifuging at 13,800 g for 10 min. […] The resulting supernatant (1 µL) was subjected to LC-MS/MS for the assessment of Y101, M8, M9 and ETV, respectively. […] The concentrations of ETV, Y101, M8 and M9 were determined by an AB QTRAP 5500 LC–MS/MS System (Foster City, CA, USA) as previously described. Chromatographic separation was achieved on an Infinitylab Poroshell 120 EC-C18 (50 mm × 2.1 mm, 2.7 µm, Agilent Technology Inc., CA, USA) at 40 °C. The mobile phase consisted of formic acid-acetonitrile (0.05:100, v/v) and a mixture of 1 mmol-ammonium acetate-acetonitrile-formic acid (95:5:0.05, v/v/v) at a flow rate of 0.3 mL/min. […] Analyst1.5.2 software was used for data processing and analysis.

rat kidney slices = assay: In vitro uptake assay in kidney slices; type: in vitro ADME; settings: M8 5.0 µM; for inhibition of the uptake of M8 in kidney slices: PCG 0.2 and 0.5 mM, PRO 0.1 mM, PAH 0.2 and 0.5 mM, TEA 0.2 mM, 10 min, ETV 10 µM
Method: The renal cortex was cut into 300 µm slices with a ZQP-86 tissue slicer (Shanghai Zhisun Equipment Co., Ltd., Shanghai, China; surface area 0.15 cm^2). […] Next, the kidney slices were prepared as previously described. Two slices per well were placed into 37 °C buffer filled with oxygen for pre-incubation for 3 min and then gently moved into a 24-well cell culture plate containing 1 mL oxygenated buffer at 4 °C or 37 °C. The uptakes of ETV (10 µM), Y101 (2.0 µM), M8 (5.0 µM) and M9 (1.0 µM) were measured at 5, 10, 15 and 30 min after the treatment, respectively. […] Following incubation at the designated time, kidney slices were collected, rinsed with ice-cold buffer three times, and dried on filter paper. After weighing and homogenization (IKA-T 10 homogenizer; IKA, Staufen, Germany), the concentrations of Y101, M8, M9 and ETV of kidney slice homogenates were determined as in the description below.
as §1

[1] = Renal excretion study in rats (cumulative urinary excretion, renal clearance); type: in vivo, Sprague–Dawley (SD) rats; settings: for CL renal: Sprague-Dawley, rat, urine, iv, read-out: CLR (renal clearance) (converted)
Method: To investigate the effects of PRO on the renal excretion of Y101 and its metabolites, rats received an intravenous dose of Y101 (25 mg/kg) or Y101 + PRO (25 mg/kg for Y101 and 100 mg/kg for PRO) via the caudal vein. In order to verify the DDI between Y101 and ETV in renal excretion, rats received an intravenous dose of Y101 (25 mg/kg) and/or ETV (0.06 mg/kg) by caudal vein.
[…] Subsequently, urine samples were stored at −70 °C until analysis. The cumulative urinary excretion and renal clearance (CLR) were calculated as previously described.
(§2) Biological samples were prepared as previously described.

[2] = Pharmacokinetic study in rats, intravenous Y101 with or without PRO; type: in vivo, Sprague–Dawley (SD) rats; settings: for Tmax / half-life / AUC(0-inf) / AUC(0-t) / Cmax: male, Sprague-Dawley, rat, plasma, iv, 25 mg/kg, n = 3
Method: The effect of PRO on the pharmacokinetics of Y101 was studied in rats. Male rats surgically prepared with indwelling jugular cannula were randomly divided into two groups (n = 3): (1) Y101 alone (25 mg/kg) as a control and (2) Y101 + PRO (25 mg/kg for Y101 and 100 mg/kg for PRO) as an experimental group. The intravenous dose of Y101 was prepared as previously described. Both Y101 and PRO were injected by caudal vein to rats at volume of 5 mL/kg.
(§3) Following administration, serial blood samples were collected through jugular vein pre-dose (0 h) and post-dose at 0.033, 0.083, 0.25, 0.5, 1, 1.5, 2, 3, 4, 6, 9, 12, 24 and 30 h in heparinized Eppendorf tubes. The resulting samples were centrifuged at 13,800× g at 4 °C for 5 min to obtain plasma. All plasma samples were stored at −70 °C until analysis.
as §2
(§4) Non-compartmental analysis with Phenix WinNonlin (version 8.1; Pharsight, Certara Corp, Princeton, NJ) was used to calculate the main pharmacokinetic parameters of ETV, Y101, M8 and M9 for individual rats. The observed values were reported for maximum concentration (Cmax) and time to reach maximum concentration (Tmax), while the area under the plasma concentration–time curve (AUC) was calculated via the default trapezoidal-up, log-trapezoidal-down approach.

[3] = Pharmacokinetic DDI study in rats, intravenous Y101 and/or ETV; type: in vivo, Sprague–Dawley (SD) rats; settings: Sprague-Dawley, rat, plasma, n = 4
Method: (§5) Additionally, DDI between Y101 and ETV was investigated by monitoring time-course plasma Y101 in rats with surgery as described above. Animals were randomly placed into three groups (n = 4): (1) Y101 alone (25 mg/kg for intravenous treatment and 60 mg/kg for oral administration); (2) ETV (0.06 mg/kg); and (3) Y101 (25 mg/kg for intravenous treatment and 60 mg/kg for oral administration) + ETV (0.06 mg/kg). ETV was dissolved in saline at concentration of 12 µg/mL. Rats received an oral or intravenous dose of Y101 and/or ETV at volume of 5 mL/kg. The doses used in in vivo pharmacokinetic studies were selected in accordance with therapeutic doses of Y101 and ETV commonly used clinically and in previous studies.
as §3, §2, §4

[4] = Pharmacokinetic DDI study in rats, oral Y101 and/or ETV; type: in vivo, Sprague–Dawley (SD) rats; settings: Sprague-Dawley, rat, plasma, n = 4
Method: as §5, §3, §2, §4

[5] = i.v. Y101 25 mg/kg + ETV 0.06 mg/kg
[6] = i.v. Y101 25 mg/kg + PRO 100 mg/kg vs Y101 alone
[7] = i.v. Y101 25 mg/kg + PRO 100 mg/kg
[8] = oral Y101 60 mg/kg + ETV 0.06 mg/kg

CCCN(CCC)S(=O)(=O)c1ccc(C(=O)O)cc1 [PRO, probenecid, reference compound]
inhibition of the uptake of ES in hOAT3-HEK293 cells (hOAT3; ES 10 µM, PRO 100 µM, 10 min): inhibited in the presence of PRO | inhibition of the uptake of M8 in hOAT3-HEK293 cells (hOAT3; M8 10 µM, PRO 100 µM, ETV 10 µM): inhibited by the presence of PRO | inhibition of the uptake of M8 in kidney slices (rat kidney slices): inhibited significantly

C[C@]12CC[C@@H]3c4ccc(OS(=O)(=O)[O-])cc4CC[C@H]3[C@@H]1CCC2=O.[Na+] [ES, Estrone 3-sulfate sodium salt, reference compound]
substrate of hOAT3 (uptake in hOAT3-HEK293 vs mock-HEK293 cells) (hOAT3; Y101 2.0 µM, M8 10 µM, ES 10 µM): selectively accumulated

CC1(C)S[C@@H]2[C@H](NC(=O)Cc3ccccc3)C(=O)N2[C@H]1C(=O)O [PCG, benzylpenicillin]
inhibition of the uptake of M8 in kidney slices (rat kidney slices): inhibited significantly

C[N+](C)([O-])CCOc1ccc(CC(NC(=O)c2ccccc2)C(=O)O)cc1 (stereo not drawn) [M9]
CL renal ([1]; 25 mg/kg, i.v. Y101 25 mg/kg + PRO 100 mg/kg): 2 mL/min/kg | CL renal ([1]; 25 mg/kg, i.v. Y101 25 mg/kg alone (Table 1, control of PRO study)): 2.08 mL/min/kg | CL renal ([1]; 25 mg/kg, i.v. Y101 25 mg/kg alone (Table 2, control of ETV study)): 2.47 mL/min/kg | CL renal [1, 5]: 2.67 mL/min/kg | cumulative excretion in the urine ([1]; i.v. Y101 25 mg/kg + ETV 0.06 mg/kg, at 30 h post-dose): 1.50 ± 0.232 % of the dose | cumulative urinary excretion ([1]; i.v. Y101 25 mg/kg + PRO 100 mg/kg, 0 to 48 h): 1.36 ± 0.106% | cumulative urinary excretion ([1]; i.v. Y101 25 mg/kg alone, at 48 h post-dose): 1.42 ± 0.04 % of the dose and 1.42 % of the dose | elevation in AUC value on co-administration of PRO [2, 6]: 56% | increase in Cmax value on co-administration of PRO [2, 6]: 1.4 fold | Tmax [2, 7]: 1.33 h | half-life [2, 7]: 79.2 min | AUC(0-inf) [2, 7]: 536 ng·h/mL | AUC(0-t) [2, 7]: 527 ng·h/mL | Cmax [2, 7]: 219 ng/mL | AUC(0-inf) ([2]; i.v. Y101 25 mg/kg alone): 343 ng·h/mL | AUC(0-t) ([2]; i.v. Y101 25 mg/kg alone): 335 ng·h/mL | Cmax ([2]; i.v. Y101 25 mg/kg alone): 156 ng/mL | Tmax ([2]; i.v. Y101 25 mg/kg alone): 1.17 h | half-life ([2]; i.v. Y101 25 mg/kg alone): 60.6 min | AUC(0-inf) [3, 5]: 471 ng·h/mL | AUC(0-t) [3, 5]: 464 ng·h/mL | Cmax [3, 5]: 171 ng/mL | AUC(0-inf) ([3]; i.v. Y101 25 mg/kg alone): 553 ng·h/mL | AUC(0-t) ([3]; i.v. Y101 25 mg/kg alone): 547 ng·h/mL | Cmax ([3]; i.v. Y101 25 mg/kg alone): 134 ng/mL | Tmax [3, 5]: 1.25 h | half-life [3, 5]: 108 min | Tmax ([3]; i.v. Y101 25 mg/kg alone): 1.13 h | half-life ([3]; i.v. Y101 25 mg/kg alone): 68.4 min | time and temperature dependence of uptake in kidney slices (rat kidney slices; 37 °C vs 4 °C, Y101 2.0 µM, M9 1.0 µM, 5 to 30 min): did not show significant time or temperature dependence | AUC(0-inf) [4, 8]: 657 ng·h/mL | AUC(0-t) [4, 8]: 645 ng·h/mL | Cmax [4, 8]: 127 ng/mL | AUC(0-inf) ([4]; oral Y101 60 mg/kg alone): 645 ng·h/mL | AUC(0-t) ([4]; oral Y101 60 mg/kg alone): 641 ng·h/mL | Cmax ([4]; oral Y101 60 mg/kg alone): 144 ng/mL | Tmax [4, 8]: 2.5 h | half-life [4, 8]: 87.6 min | Tmax ([4]; oral Y101 60 mg/kg alone): 3 h | half-life ([4]; oral Y101 60 mg/kg alone): 69.6 min
